Source: patent publication EP4703363A1, “SALT FORM AND CRYSTAL FORM OF THIENOPYRIMIDINE COMPOUND, AND PREPARATION METHOD THEREFOR AND USE THEREOF” (Shandong Luye Pharmaceutical Co., Ltd., priority 2023, dated 2024)

Columns and labels:
human GnRHR [1] = molecular target: T1, human GnRHR (Homo sapiens, UniProt P30968); test: In vitro antagonistic activity screening (FLIPR fluorescence, Leuprolide acetate stimulation); format: cell-based; settings: HEK293 cells stably expressing human GnRHR
T1 sequence (P30968 1-328): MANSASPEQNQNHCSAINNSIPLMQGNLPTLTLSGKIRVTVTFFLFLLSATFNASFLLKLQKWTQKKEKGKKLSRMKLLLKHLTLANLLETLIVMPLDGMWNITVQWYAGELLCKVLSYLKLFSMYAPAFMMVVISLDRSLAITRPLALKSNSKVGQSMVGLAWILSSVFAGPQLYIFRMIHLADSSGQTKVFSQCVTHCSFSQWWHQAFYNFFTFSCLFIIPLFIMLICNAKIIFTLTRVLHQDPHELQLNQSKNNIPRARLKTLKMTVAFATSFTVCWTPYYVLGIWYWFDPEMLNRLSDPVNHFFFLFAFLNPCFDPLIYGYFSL
Procedure: Cell: HEK293 cells stably expressing human GnRHR (WuXi AppTec (Shanghai) Co., Ltd.) Equipment: 384-well plate, Greiner; Vi-cell XR Cell Viability Analyzer, Beckman Coulter; incubator, Thermo.
Method: HEK293 cells stably expressing human GnRHR were seeded into a 384-well plate at a density of 20,000 cells/well. Fluo-4 DirectTM No-wash Loading Buffer (Invitrogen) was added to each well the next day, and then the plate was put back into an incubator, incubated at 37 °C for 50 min, and then incubated at room temperature for 10 min. […] Fluorescence was measured using a FLIPR Tetra high-throughput real-time fluorescence assay and analysis system. Then 10 µL of Leuprolide acetate was added, and fluorescence was measured. The IC50 and IC90 of the compound were calculated using Prism. Table 12. The in vitro antagonistic activity of the compound of formula I against human GnRHR

[2] = molecular target: T2, human hERG potassium channel (Homo sapiens, UniProt Q12809); test: hERG test (QPatch automated patch clamp, CHO cells); format: cell-based; settings: CHO cells stably expressing human hERG potassium channel
T2 construct: host or cells: CHO
T2 sequence (Q12809 whole entry): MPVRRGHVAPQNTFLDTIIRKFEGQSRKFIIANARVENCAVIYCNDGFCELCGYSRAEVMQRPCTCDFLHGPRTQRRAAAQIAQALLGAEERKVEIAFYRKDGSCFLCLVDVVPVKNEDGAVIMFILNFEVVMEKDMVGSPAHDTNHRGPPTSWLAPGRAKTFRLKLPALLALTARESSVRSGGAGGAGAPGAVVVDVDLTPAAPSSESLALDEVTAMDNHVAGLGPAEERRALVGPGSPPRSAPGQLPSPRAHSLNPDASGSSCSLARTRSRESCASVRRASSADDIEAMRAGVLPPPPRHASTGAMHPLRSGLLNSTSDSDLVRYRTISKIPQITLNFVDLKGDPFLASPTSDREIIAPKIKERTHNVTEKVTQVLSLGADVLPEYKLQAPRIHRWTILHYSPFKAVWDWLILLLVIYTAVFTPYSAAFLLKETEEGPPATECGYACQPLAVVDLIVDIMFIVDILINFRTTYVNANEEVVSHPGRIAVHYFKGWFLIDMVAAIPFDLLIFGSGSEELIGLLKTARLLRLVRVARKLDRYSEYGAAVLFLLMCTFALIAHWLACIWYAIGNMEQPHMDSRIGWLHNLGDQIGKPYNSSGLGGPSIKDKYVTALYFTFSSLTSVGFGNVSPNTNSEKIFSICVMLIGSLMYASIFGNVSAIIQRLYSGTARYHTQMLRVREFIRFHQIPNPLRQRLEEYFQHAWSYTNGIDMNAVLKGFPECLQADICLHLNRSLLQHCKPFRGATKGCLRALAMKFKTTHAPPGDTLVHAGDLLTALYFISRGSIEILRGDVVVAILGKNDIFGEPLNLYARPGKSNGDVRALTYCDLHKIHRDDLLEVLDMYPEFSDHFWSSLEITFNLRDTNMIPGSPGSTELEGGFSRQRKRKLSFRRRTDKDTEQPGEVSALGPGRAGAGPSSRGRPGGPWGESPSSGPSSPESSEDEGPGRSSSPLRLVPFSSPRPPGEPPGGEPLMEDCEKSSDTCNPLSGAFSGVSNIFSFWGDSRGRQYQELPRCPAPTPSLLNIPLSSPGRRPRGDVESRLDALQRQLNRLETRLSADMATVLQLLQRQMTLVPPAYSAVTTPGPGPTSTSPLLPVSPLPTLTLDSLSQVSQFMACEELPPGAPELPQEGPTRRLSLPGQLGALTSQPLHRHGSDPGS
Procedure: Cell: CHO cells stably expressing a human hERG potassium channel (WuXi AppTec (Shanghai) Co., Ltd.)
Reagents: physiological solution (PH = 7.4): 140 mM NaCl, 4 mM KCl, 2 mM CaCl2, 1 mM MgCl2, 5 mM glucose, 10 mM HEPES, osmolarity: about 298 mOsm; external solution (PH = 7.4): 80 mM NaCl, 4 mM KCl, 2 mM CaCl2, 1 mM MgCl2, 5 mM glucose, 60 mM NMDG, 10 mM HEPES, osmolarity: about 289 mOsm; and internal solution (PH = 7.4): 10 mM NaCl, 10 mM KCl, 110 mM KF, 10 mM HEPES, EGTA: […], osmolarity: about 280 mOsm.
Equipment: QPatch high-throughput automated patch clamp system, Sophion.
Method: CHO cells stably expressing a human hERG potassium channel were digested with TrypLE and resuspended in the physiological solution for later use. The single-cell high-impedance sealing and whole-cell mode formation processes were automatically completed by Qpatch. The cells were clamped at a voltage of -80 mV, then a voltage of -50 mV was applied for 80 ms to subtract (current) leakage, and a voltage of +20 mV was applied for 4800 ms to open the hERG channel. The voltage was then reduced to -50 mV and maintained for 5000 ms. This process was used for data collection and analysis. Finally, the voltage was returned to the clamping voltage (-80 mV, 1000 ms). This process was repeated every 20,000 ms. […]

[3] = Caco-2 monolayer two-way permeability and efflux; format: in vitro ADME; settings: human
Procedure: Instruments: water purification instrument, ELGA LabWate; biosafety cabinet, NUAIRE; thermostatic CO2 incubator, Thermo; microplate reader, PerkinElmer; LC-MS/MS, AB SCIEX.
Method: A Caco-2 monolayer cell model was used to determine the two-way permeability of the test substance and evaluate whether the test substance was transported via efflux by a transporter. In the experiment, Caco-2 cells were seeded into a 96-well cell culture plate and cultured for 28 consecutive days before a transport assay. The test substance was administered on two sides. After 120 min of incubation, samples of apical end A, basal end B, and the cell lysate were collected, and the content of the test substance in the samples was quantitatively determined using a liquid chromatography-tandem mass spectrometry (LC/MS/MS) method. The apparent permeability coefficients (Papp) in the direction from the apical end to the basal end (A-B) and in the direction from the basal end to the apical end (B-A) and the efflux ratio were calculated based on the concentration of the test substance. Table 15. The permeability of the compound of formula I in Caco-2 cells

[4] = In vivo pharmacokinetics in SD rats; settings: for F: absolute bioavailability; for AUC(0-t) / C0 / MRT last / half-life / Cmax / Tmax: male, rat, plasma
Procedure: (§1) Rats: SD rats, male, 200-250 g
(§2) Instruments: water purification instrument, Millipore; electronic balance, METTLER TOLEDO; highspeed benchtop centrifuge, Thermo; water bath thermostatic oscillator, Shanghai Yiheng Technical Co., Ltd.; vortex oscillator, Thermo; LC-MS/MS, AB SCIEX.
(§3) Method: Solutions of all compounds were prepared using DMSO and 20% solutol. In the pharmacokinetic experiment, the administration dose for the intravenous group (i.v) was 1 mg/kg, and the administration dose for the intragastric group (i.g) was 12 mg/kg; each group contained 3 rats. Blood was collected from the orbit of the rats before administration (0 h) and at set time points after administration. In the tissue distribution experimental group, the rats were intragastrically dosed at 12 mg/kg. […] The […] was placed in a heparinized EP tube and centrifuged at 13,500 rpm for 10 min to isolate the plasma. The pituitary was homogenized with water in a certain ratio. The plasma and pituitary homogenates were pre-treated and then analyzed by LC-MS/MS to determine the concentrations of the test substances in the plasma and the pituitary. The plasma drug concentration data were processed in a non-compartmental model using WinNonlin™ Version 6.3 (Pharsight, Mountain View, CA) pharmacokinetic software. […] Table 16-1. Pharmacokinetic parameters in SD rats after intravenous administration

[5] = Pituitary tissue distribution in SD rats; format: in vivo; settings: intragastric 12 mg/kg; for Kp at 1 h / Kp at 4 h / Kp at 12 h: male, rat, pituitary/plasma, oral
Procedure: as §1, §2, §3

human GnRHR [6] = molecular target: T1, human GnRHR; test: In vitro binding screening ([125I]-[D-Trp6]-LH-RH displacement, Chem-1 cell membrane); set-up: host or cells: Chem-1 cells (membrane preparation)
Procedure: [D-Trp6]-LH-RH, PerkinElmer; [D-Trp6]-LH-RH, Abcam.
Equipment: MicroBeta2 LumiJET system, PerkinElmer.
1 µM [D-Trp6]-LH-RH was used in the non-specific binding assay. The cell membrane was collected by filtration under vacuum and washed before liquid scintillation. The binding IC50 and IC90 of the compound were calculated using Prism. Table 13. The in vitro binding activity of the compound of the present disclosure to human GnRHR

[7] = intragastric administration group

**Q.** With CCNC(=O)Nc1ccc(-c2sc3c(c2CN(C)C)c(=O)n(-c2ccc(OC)nn2)c(=O)n3Cc2c(F)cccc2F)cn1 [Formula I] as the molecule, how does the IC50 (human GnRHR [1]; read-out: Functional IC50) read?
**A.** The IC50 was 1.01 nM.

**Q.** And the IC90 (human GnRHR [1]; read-out: Functional IC90)?
**A.** The IC90 was 7.55 nM.

**Q.** What about the IC50 [2] of the same molecule?
**A.** The IC50 was 25800 nM.

**Q.** What about the efflux ratio at 120 min ([3]; Caco-2) of the same molecule?
**A.** Its efflux ratio at 120 min is 294.

**Q.** What about the Papp A→B at 120 min ([3]; Caco-2, 120 min incubation, A to B) of the same molecule?
**A.** Its Papp A→B at 120 min is 0.0142 ×10⁻⁶ cm/s.

**Q.** And the Papp B→A at 120 min ([3]; Caco-2, 120 min incubation, B to A)?
**A.** Its Papp B→A at 120 min is 4.19 ×10⁻⁶ cm/s.

**Q.** And the F ([4]; i.g 12 mg/kg)?
**A.** Its F is 19.9%.

**Q.** And the “AUClast relative to Relugolix” value [4, 7]?
**A.** The value was 2.45 times.

**Q.** And the “Cmax relative to Relugolix” value [4, 7]?
**A.** The value was 3.63 times.

**Q.** What about the AUC(0-t) ([4]; intravenous, i.v 1 mg/kg) of the same molecule?
**A.** Its AUC(0-t) is 150 ± 12 ng·h/mL.

**Q.** What about the C0 ([4]; intravenous, i.v 1 mg/kg) of the same molecule?
**A.** Its C0 is 68.8 ± 21.7 ng/mL.

**Q.** And the MRT last ([4]; intravenous, i.v 1 mg/kg)?
**A.** Its MRT last is 5.41 ± 0.47 h.

**Q.** What about the half-life ([4]; intravenous, i.v 1 mg/kg) of the same molecule?
**A.** The half-life was 6.39 ± 1.08 h.

**Q.** And the AUC(0-t) ([4]; oral, i.g 12 mg/kg)?
**A.** Its AUC(0-t) is 357 ± 85 ng·h/mL.

**Q.** And the Cmax ([4]; oral, i.g 12 mg/kg)?
**A.** Its Cmax is 78.5 ± 36.4 ng/mL.

**Q.** What about the MRT last ([4]; oral, i.g 12 mg/kg) of the same molecule?
**A.** Its MRT last is 6.13 ± 1.1 h.

**Q.** And the Tmax ([4]; oral, i.g 12 mg/kg)?
**A.** Its Tmax is 0.38 ± 0.14 h.

**Q.** And the half-life ([4]; oral, i.g 12 mg/kg)?
**A.** Its half-life is 4.31 ± 1.81 h.

**Q.** What about the Pituitary ([5]; 1 h) of the same molecule?
**A.** The Pituitary was 2250±474.

**Q.** What about the Plasma ([5]; 1 h) of the same molecule?
**A.** The Plasma was 39.5±14.0.

**Q.** What about the “concentration in the pituitary relative to Relugolix” value ([5]; 1 h) of the same molecule?
**A.** Its value is 2.38 times.

**Q.** What about the Pituitary ([5]; 4 h) of the same molecule?
**A.** The Pituitary was 1841±636.

**Q.** What about the Plasma ([5]; 4 h) of the same molecule?
**A.** Its Plasma is 22.8±2.5.

**Q.** What about the “concentration in the pituitary relative to Relugolix” value ([5]; 4 h) of the same molecule?
**A.** The value was 1.48 times.

**Q.** What about the Pituitary ([5]; 12 h) of the same molecule?
**A.** The Pituitary was 1254±494.

**Q.** And the Plasma ([5]; 12 h)?
**A.** The Plasma was 9.70±3.10.

**Q.** What about the “concentration in the pituitary relative to Relugolix” value ([5]; 12 h) of the same molecule?
**A.** Its value is 2.46 times.

**Q.** What about the Kp at 1 h ([5]; 1 h) of the same molecule?
**A.** The Kp at 1 h was 56.9.

**Q.** What about the Kp at 4 h ([5]; 4 h) of the same molecule?
**A.** Its Kp at 4 h is 80.8.

**Q.** And the Kp at 12 h ([5]; 12 h)?
**A.** The Kp at 12 h was 129.

**Q.** What about the IC50 (human GnRHR [6]) of the same molecule?
**A.** The IC50 was 0.64 nM.

**Q.** What about the IC90 (human GnRHR [6]) of the same molecule?
**A.** Its IC90 is 2.67 nM.

**Q.** With CONC(=O)Nc1ccc(-c2sc3c(c2CN(C)C)c(=O)n(-c2ccc(OC)nn2)c(=O)n3Cc2c(F)cccc2F)cc1 [Relugolix, reference compound] as the molecule, how does the T1/2 ([4]; i.g 12 mg/kg) read?
**A.** The T1/2 was 3.88 ± 0.57 h.

**Q.** What about the F ([4]; i.g 12 mg/kg) of the same molecule?
**A.** The F was 5.74%.

**Q.** And the AUC(0-t) ([4]; intravenous, i.v 1 mg/kg)?
**A.** Its AUC(0-t) is 212 ± 61 ng·h/mL.

**Q.** What about the C0 ([4]; intravenous, i.v 1 mg/kg) of the same molecule?
**A.** Its C0 is 339 ± 36 ng/mL.

**Q.** What about the MRT last ([4]; intravenous, i.v 1 mg/kg) of the same molecule?
**A.** The MRT last was 2.01 ± 0.92 h.

**Q.** And the AUC(0-t) ([4]; oral, i.g 12 mg/kg)?
**A.** The AUC(0-t) was 146 ± 37 ng·h/mL.

**Q.** What about the Cmax ([4]; oral, i.g 12 mg/kg) of the same molecule?
**A.** The Cmax was 21.6 ± 8.3 ng/mL.

**Q.** What about the MRT last ([4]; oral, i.g 12 mg/kg) of the same molecule?
**A.** The MRT last was 5.68 ± 0.17 h.

**Q.** And the Tmax ([4]; oral, i.g 12 mg/kg)?
**A.** Its Tmax is 0.33 ± 0.14 h.

**Q.** And the Kp at 1 h ([5]; 1 h)?
**A.** The Kp at 1 h was 42.4.

**Q.** What about the Kp at 4 h ([5]; 4 h) of the same molecule?
**A.** The Kp at 4 h was 76.3.

**Q.** What about the Kp at 12 h ([5]; 12 h) of the same molecule?
**A.** The Kp at 12 h was 161.
